From ChEMBL document CHEMBL5214890 (Eur J Med Chem, 2021)
Activity calls are given as the source filed them. The calls are words filed in the database; no cut-off is given here.

What was measured:
Mus musculus [1] = test: Antidiabetic activity in male db/db mouse assessed as increase in islet number at 30 nmol/kg, sc administered twice daily for 35 days; type: functional, organism-based; settings: time 35.0 day
[2] = Toxicity in male db/db mouse assessed as change in liver ALT level at 100 nmol/kg, sc administered twice daily for 7 days; type: organism-based; settings: in vivo, 168 h, time 7 day
Mus musculus [3] = test: Antidiabetic activity in male db/db mouse assessed as reduction in blood glucose level at 30 nmol/kg, sc administered twice daily for 35 days; type: functional, organism-based; settings: time 35.0 day
Rattus norvegicus [4] = test: Antidiabetic activity in overnight fasted male Sprague-Dawley rat assessed as reduction in food intake at 100 nmol/kg, ip; type: functional; set-up: scale not given: the % may be the effect or the level left
Mus musculus [5] = test: Antidiabetic activity in overnight fasted male C57BL/6J mouse assessed as reduction in acute food intake at 30 nmol/kg, sc administered at -0.5 hrs; type: functional, organism-based
[6] = Toxicity in male db/db mouse assessed as change in liver AST level at 100 nmol/kg, sc administered twice daily for 7 days; type: organism-based; settings: in vivo, 168 h, time 7 day
Mus musculus [7] = test: Antidiabetic activity in male db/db mouse assessed as increase in islet area at 30 nmol/kg, sc administered twice daily for 35 days; type: functional, organism-based; settings: time 35.0 day
Glucagon receptor = Glucagon receptor (Homo sapiens, UniProt P47871); test: Agonist activity at human GCGR expressed in HEK293 cells incubated for 30 mins and assessed as increase in cAMP accumulation measured by HTRF assay; type: functional, cell-based
[8] = Toxicity in overnight fasted male Sprague-Dawley rat assessed as induction of Pica behaviour by measuring kaolin intake at 10 to 300 nmol/kg, ip; settings: in vivo, dose 10-300 nmol/kg
Mus musculus [9] = test: Antidiabetic activity in male DIO mouse assessed as reduction in acute food intake at 10 nmol/kg, sc measured at 0 to 2 hrs post administration; type: functional, organism-based
[10] = Toxicity in male db/db mouse assessed as change in serum lipase level at 30 nmol/kg, sc administered twice daily for 35 days; type: organism-based; settings: in vivo, 840 h, time 35 day
Mus musculus [11] = test: Antidiabetic activity in db/db mouse assessed as reduction in plasma insulin level at 10 nmol/kg, ip pretreated with compound and followed by glucose challenge and measured by oral glucose tolerance test; type: functional, organism-based
Rattus norvegicus [12] = test: Antidiabetic activity in overnight fasted male Sprague-Dawley rat assessed as reduction in food intake at 300 nmol/kg, ip; type: functional; set-up: scale not given: the % may be the effect or the level left
[13] = Toxicity in male db/db mouse assessed as change in BUN at 100 nmol/kg, sc administered twice daily for 7 days; type: organism-based; settings: in vivo, 168 h, time 7 day
[14] = Toxicity in male db/db mouse assessed as change in serum amylase level at 30 nmol/kg, sc administered twice daily for 35 days; type: organism-based; settings: in vivo, 840 h, time 35 day
[15] = Toxicity in male db/db mouse assessed as change in BUN level at 30 nmol/kg, sc administered twice daily for 35 days; type: organism-based; settings: in vivo, 840 h, time 35 day
Mus musculus [16] = test: Antidiabetic activity in male […] assessed as increase in plasma insulin level at 30 nmol/kg, sc administered twice daily for 3 weeks; type: functional, organism-based
Mus musculus [17] = test: Antidiabetic activity in male db/db mouse assessed as decrease in HbA1c level at 30 nmol/kg, sc administered twice daily for 35 days; type: functional, organism-based; settings: time 35.0 day
Mus musculus [18] = test: Antidiabetic activity in male DIO mouse assessed as decrease in fasted blood glucose at 100 nmol/kg, sc administered twice daily for 7 days; type: functional, organism-based; settings: time 7.0 day
Mus musculus [19] = test: Antidiabetic activity in 2 hrs fasted male C57BL/6J mouse at 10 to 30 nmol/kg, ip administered at 0 mins in presence of somatostatin at 10 mg/kg, sc administered at -30 mins and measured by oral glucose tolerance test; type: functional, organism-based; settings: dose 10-30 nmol/kg
Mus musculus [20] = test: Antidiabetic activity in male db/db mouse assessed as significant reduction in body weight gain at 30 nmol/kg, sc administered twice daily for 35 days; type: functional, organism-based; settings: time 35.0 day
Mus musculus [21] = test: Antidiabetic activity in male […] assessed as decrease in serum total cholesterol level at 30 nmol/kg, sc administered twice daily for 3 weeks; type: functional, organism-based
Mus musculus [22] = test: Antidiabetic activity in overnight fasted male C57BL/6J mouse at 10 nmol/kg, ip administered at -30 mins and measured by oral glucose tolerance test; type: functional, organism-based
[23] = Toxicity in male db/db mouse assessed as change in Cre level at 30 nmol/kg, sc administered twice daily for 35 days; type: organism-based; settings: in vivo, 840 h, time 35 day
Rattus norvegicus [24] = test: Antidiabetic activity in overnight fasted male Sprague-Dawley rat assessed as reduction in food intake at 10 nmol/kg, ip; type: functional; set-up: scale not given: the % may be the effect or the level left
Mus musculus [25] = test: Antidiabetic activity in male […] assessed as increase in serum HDL/LDL ratio at 30 nmol/kg, sc administered twice daily for 3 weeks; type: functional, organism-based

Sequence of Glucagon receptor (P47871 whole entry): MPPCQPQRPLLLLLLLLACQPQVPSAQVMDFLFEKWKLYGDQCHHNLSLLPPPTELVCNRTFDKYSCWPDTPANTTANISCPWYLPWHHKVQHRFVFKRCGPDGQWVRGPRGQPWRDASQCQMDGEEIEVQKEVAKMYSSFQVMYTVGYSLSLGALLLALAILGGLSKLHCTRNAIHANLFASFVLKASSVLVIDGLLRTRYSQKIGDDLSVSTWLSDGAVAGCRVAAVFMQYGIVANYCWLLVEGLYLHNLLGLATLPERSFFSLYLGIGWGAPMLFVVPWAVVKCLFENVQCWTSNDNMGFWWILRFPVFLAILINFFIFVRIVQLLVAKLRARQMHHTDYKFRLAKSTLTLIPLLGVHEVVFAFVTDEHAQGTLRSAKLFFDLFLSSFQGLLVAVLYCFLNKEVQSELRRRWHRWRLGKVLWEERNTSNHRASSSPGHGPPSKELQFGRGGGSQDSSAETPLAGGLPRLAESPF

In the case of `CCCCCCCCCCCCCCCC(=O)N[C@@H](CCC(=O)NCCCC[C@H](NC(=O)[C@H](Cc1ccc(O)cc1)NC(=O)[C@H](CCCCN)NC(=O)[C@H](CO)NC(=O)[C@@H](NC(=O)[C@H](CC(=O)O)NC(=O)[C@H](CC(N)=O)NC(=O)[C@@H](NC(=O)[C@H](Cc1ccc(O)cc1)NC(=O)[C@@H](NC(=O)CNC(=O)[C@H](CCC(N)=O)NC(=O)[C@@H](CO)NC(=O)[C@@H](N)Cc1c[nH]cn1)[C@@H](C)O)[C@@H](C)O)C(C)C)C(=O)N[C@@H](CC(=O)O)C(=O)N[C@@H](CO)C(=O)N[C@@H](CCCNC(=N)N)C(=O)N[C@@H](CCCNC(=N)N)C(=O)N[C@@H](C)C(=O)N[C@@H](CCC(N)=O)C(=O)N[C@@H](CC(=O)O)C(=O)N[C@@H](Cc1ccccc1)C(=O)N[C@H](C(=O)N[C@@H](CCC(=O)O)C(=O)N[C@@H](Cc1c[nH]c2ccccc12)C(=O)N[C@@H](CC(C)C)C(=O)N[C@@H](CCCCN)C(=O)N[C@@H](CC(N)=O)C(=O)NCC(=O)NCC(=O)N1CCC[C@H]1C(=O)N[C@@H](CO)C(=O)N[C@@H](CO)C(=O)NCC(=O)N[C@@H](C)C(=O)N1CCC[C@H]1C(=O)N1CCC[C@H]1C(=O)N1CCC[C@H]1C(=O)N[C@@H](CO)C(N)=O)[C@@H](C)CC)C(=O)O`, the Activity (Mus musculus [1]) is reported as “Active”, the Activity [2] is reported as “Non-Toxic” and the Activity (Mus musculus [3]) is reported as “Active”. For the same compound, the Activity (Rattus norvegicus [4]) was 29%, the Activity (Mus musculus [5]) was “Active” and the Activity [6] was “Non-Toxic”. The Activity (Mus musculus [7]) was “Active”, the EC50 (Glucagon receptor) was 0.098 nM and the Activity [8] was “Non-Toxic”. For the same compound, the Activity (Mus musculus [9]) was “Active”, the Activity [10] was “Non-Toxic” and the Activity (Mus musculus [11]) was “Active”. The Activity (Rattus norvegicus [12]) was 33%, the Activity [13] was “Non-Toxic” and the Activity [14] was “Non-Toxic”. For the same compound, the Activity [15] was “Non-Toxic”, the Activity (Mus musculus [16]) was “Active” and the Activity (Mus musculus [17]) was “Active”. The Activity (Mus musculus [18]) was “Active”, the Activity (Mus musculus [19]) was “Active” and the Activity (Mus musculus [20]) was “Active”. The Activity (Mus musculus [21]) was “Active”, the Activity (Mus musculus [22]) was “Active” and the Activity [23] was “Non-Toxic”. For the same compound, the Activity (Rattus norvegicus [24]) was 25% and the Activity (Mus musculus [25]) was “Active”.
